Assay results from ChEMBL document CHEMBL1201862, “PubChem BioAssay data set” (2004).
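Compound exposure: 48 hours, 5 concentrations, 96-well plates. GI50 = concentration required for 50% inhibition of growth.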 Calls of active or inactive are those of the source. Cut-off read from the data, not from the text of the source: active = GI50 up to about 1.1 µM and inactive = higher.

What was measured:
Experiment in all cases: NCI tumour cell line growth inhibition, 48 h
M14 = tested on: M14
HOP-62 = tested on: HOP-62
OVCAR-8 = tested on: OVCAR-8
HOP-92 = tested on: HOP-92
A549 = tested on: A549
SF-268 = tested on: SF-268
LXFL 529 = tested on: LXFL 529
SK-MEL-2 = tested on: SK-MEL-2
M19-MEL = tested on: M19-MEL
HCT-116 = tested on: HCT-116
SNB-19 = tested on: SNB-19
CAKI-1 = tested on: CAKI-1
UACC-257 = tested on: UACC-257
LOX IMVI = tested on: LOX IMVI
UO-31 = tested on: UO-31
SK-MEL-5 = tested on: SK-MEL-5
OVCAR-4 = tested on: OVCAR-4
HCC 2998 = tested on: HCC 2998
HCT-15 = tested on: HCT-15
SN12C = tested on: SN12C
SF-295 = tested on: SF-295
SW-620 = tested on: SW-620
DMS-273 = tested on: DMS-273
786-0 = tested on: 786-0
SF-539 = tested on: SF-539
NCI-H522 = tested on: NCI-H522
EKVX = tested on: EKVX
IGROV-1 = tested on: IGROV-1
NCI-H23 = tested on: NCI-H23
ACHN = tested on: ACHN
DLD-1 = tested on: DLD-1
SK-MEL-28 = tested on: SK-MEL-28
UACC-62 = tested on: UACC-62
NCI-H460 = tested on: NCI-H460
OVCAR-3 = tested on: OVCAR-3
HT-29 = tested on: HT-29
U-251 = tested on: U-251
TK-10 = tested on: TK-10
KM12 = tested on: KM12
KM-20L2 = tested on: KM-20L2
COLO 205 = tested on: COLO 205
MDA-N = tested on: MDA-N
MDA-MB-231 = tested on: MDA-MB-231
HL-60 = tested on: HL-60
K562 = tested on: K562
SK-OV-3 = tested on: SK-OV-3
SNB-75 = tested on: SNB-75
NCI/ADR-RES = tested on: NCI/ADR-RES
Malme-3M = tested on: Malme-3M
A498 = tested on: A498
CCRF-CEM = tested on: CCRF-CEM
RPMI-8226 = tested on: RPMI-8226
RXF 393 = tested on: RXF 393
MCF7 = tested on: MCF7
Hs-578T = tested on: Hs-578T
PC-3 = tested on: PC-3
BT-549 = tested on: BT-549
SR = tested on: SR
DU-145 = tested on: DU-145
NCI-H226 = tested on: NCI-H226
OVCAR-5 = tested on: OVCAR-5
T47D = tested on: T47D
MOLT-4 = tested on: MOLT-4
MDA-MB-435 = tested on: MDA-MB-435
SNB-78 = tested on: SNB-78
DMS-114 = tested on: DMS-114

Measured: GI50

CCN(CC)C(=O)c1ccc(C)c(/N=N/N(C)C)c1
inactive: M14 > 100 µM | HOP-62 > 100 µM | OVCAR-8 > 100 µM | HOP-92 > 100 µM | A549 > 100 µM | SF-268 > 100 µM | LXFL 529 > 100 µM | SK-MEL-2 > 100 µM | M19-MEL > 100 µM | HCT-116 > 100 µM | SNB-19 > 100 µM | CAKI-1 > 100 µM | UACC-257 > 100 µM | LOX IMVI > 100 µM | UO-31 > 100 µM | SK-MEL-5 > 100 µM | OVCAR-4 > 100 µM | HCC 2998 > 100 µM | SN12C > 100 µM | SF-295 > 100 µM | SW-620 > 100 µM | DMS-273 > 100 µM | 786-0 > 100 µM | SF-539 > 100 µM | NCI-H522 44 µM | EKVX > 100 µM | IGROV-1 > 100 µM | NCI-H23 > 100 µM | ACHN > 100 µM | DLD-1 > 100 µM | SK-MEL-28 > 100 µM | UACC-62 > 100 µM | NCI-H460 > 100 µM | OVCAR-3 > 100 µM | HT-29 > 100 µM | U-251 > 100 µM | TK-10 > 100 µM | KM12 > 100 µM | KM-20L2 > 10 µM
> 100 µM: HCT-15

C[C@@]12CCC(=O)C=C1CC[C@H]1C2=CC[C@]2(C)C1CC[C@@]2(C)O (stereo partly drawn)
36.2 µM: HCT-15
inactive: M14 50.6 µM | COLO 205 35 µM | HOP-62 67.8 µM | OVCAR-8 > 100 µM | HOP-92 > 100 µM | MDA-N 23 µM | MDA-MB-231 67.5 µM | A549 50.4 µM | SF-268 75.2 µM | HL-60 25.4 µM | SK-MEL-2 38 µM | K562 38.4 µM | HCT-116 52 µM | SNB-19 > 100 µM | SK-OV-3 54.6 µM | SNB-75 66.1 µM | CAKI-1 48.3 µM | UACC-257 69.2 µM | NCI/ADR-RES 34.7 µM | Malme-3M > 100 µM | LOX IMVI > 100 µM | UO-31 41.9 µM | A498 > 100 µM | CCRF-CEM 40.4 µM | SK-MEL-5 41.6 µM | RPMI-8226 54.7 µM | OVCAR-4 25.2 µM | HCC 2998 49 µM | RXF 393 > 100 µM | MCF7 57.3 µM | Hs-578T 38.2 µM | PC-3 41.5 µM | BT-549 33.1 µM | SN12C 88.7 µM | SF-295 32.3 µM | SR 34.8 µM | SW-620 40.6 µM | DU-145 > 100 µM | 786-0 > 100 µM | SF-539 61.9 µM | NCI-H522 28.1 µM | EKVX > 100 µM | IGROV-1 79.3 µM | NCI-H226 > 100 µM | NCI-H23 66.8 µM | ACHN > 100 µM | OVCAR-5 > 100 µM | SK-MEL-28 > 100 µM | UACC-62 37 µM | NCI-H460 43.6 µM | T47D 73.5 µM | MOLT-4 38.4 µM | OVCAR-3 34.1 µM | HT-29 37.9 µM | MDA-MB-435 23.3 µM | U-251 41.3 µM | TK-10 > 100 µM | KM12 29.7 µM

CCOP(=O)(OCC)/C(C#N)=C/c1cc(O)ccc1O
inactive: M14 > 100 µM | COLO 205 > 100 µM | HOP-62 > 100 µM | HOP-92 > 100 µM | SF-268 > 100 µM | LXFL 529 > 100 µM | SNB-78 > 100 µM | SK-MEL-2 > 100 µM | K562 > 100 µM | M19-MEL > 100 µM | HCT-116 > 100 µM | SNB-19 > 100 µM | SK-OV-3 > 100 µM | SNB-75 79.3 µM | UACC-257 > 100 µM | Malme-3M > 100 µM | UO-31 > 100 µM | A498 > 100 µM | DMS-114 > 100 µM | RPMI-8226 > 100 µM | OVCAR-4 > 100 µM | RXF 393 > 100 µM | SF-295 > 100 µM | SF-539 > 100 µM | IGROV-1 > 100 µM | NCI-H23 > 100 µM | ACHN > 100 µM | OVCAR-5 > 100 µM | SK-MEL-28 > 100 µM | UACC-62 > 100 µM | NCI-H460 > 100 µM | OVCAR-3 > 100 µM | HT-29 > 100 µM | U-251 > 100 µM | KM12 > 100 µM | KM-20L2 > 100 µM

CC(=O)Oc1c2c(c(OC(C)=O)c3c1n(C(C)=O)c1ccccc1n3C(C)=O)n(C(C)=O)c1ccccc1n2C(C)=O
inactive: M14 4.44 µM | HOP-62 8.17 µM | OVCAR-8 2.95 µM | A549 6.22 µM | SF-268 7.05 µM | HL-60 2.67 µM | LXFL 529 2.74 µM | SK-MEL-2 5.18 µM | K562 2.86 µM | M19-MEL 1.95 µM | HCT-116 1.95 µM | SNB-19 12.4 µM | SK-OV-3 23.6 µM | SNB-75 11.5 µM | CAKI-1 10.9 µM | UACC-257 3.42 µM | Malme-3M 2.38 µM | LOX IMVI 2.56 µM | UO-31 12.6 µM | A498 18.4 µM | CCRF-CEM 2.5 µM | DMS-114 2.59 µM | SK-MEL-5 7.76 µM | RPMI-8226 2.48 µM | OVCAR-4 16.9 µM | HCC 2998 3.67 µM | RXF 393 8.38 µM | SN12C 3.27 µM | SF-295 8.81 µM | SR 2.62 µM | SW-620 1.94 µM | DMS-273 3.24 µM | 786-0 3.46 µM | SF-539 13.4 µM | NCI-H522 2.3 µM | EKVX > 10 µM | IGROV-1 > 10 µM | NCI-H23 8.24 µM | ACHN 9.16 µM | DLD-1 3.04 µM | SK-MEL-28 2.89 µM | UACC-62 8.73 µM | NCI-H460 3.68 µM | MOLT-4 2.3 µM | OVCAR-3 1.92 µM | HT-29 3.18 µM | U-251 10.9 µM | KM12 3.76 µM
3.27 µM: HCT-15

CC1=C2C(=C[C@@](C)(CO)[C@@H]2O)C(=O)[C@](C)(O)C12CC2 [ILLUDIN]
active: M14 0.00891 µM | COLO 205 0.00771 µM | HOP-62 0.00705 µM | OVCAR-8 0.0133 µM | HOP-92 0.0232 µM | MDA-N < 0.0117 µM | MDA-MB-231 0.0213 µM | A549 0.00458 µM | SF-268 0.00293 µM | HL-60 0.00427 µM | SK-MEL-2 0.0143 µM | K562 0.012 µM | HCT-116 0.00386 µM | SNB-19 0.0282 µM | SK-OV-3 0.00612 µM | SNB-75 0.0138 µM | CAKI-1 0.0158 µM | UACC-257 0.0145 µM | NCI/ADR-RES 0.0074 µM | Malme-3M 0.00889 µM | LOX IMVI 0.00313 µM | UO-31 0.0147 µM | A498 0.0104 µM | CCRF-CEM 0.0169 µM | SK-MEL-5 0.00596 µM | RPMI-8226 0.855 µM | OVCAR-4 0.00667 µM | HCC 2998 0.013 µM | RXF 393 0.00664 µM | MCF7 0.00284 µM | Hs-578T 0.0169 µM | PC-3 0.0143 µM | BT-549 0.00658 µM | SN12C 0.019 µM | SF-295 0.00251 µM | SR 0.00182 µM | SW-620 0.00305 µM | DU-145 0.0181 µM | 786-0 0.00353 µM | SF-539 0.00506 µM | NCI-H522 0.00352 µM | EKVX 0.027 µM | IGROV-1 0.0155 µM | NCI-H226 0.0231 µM | NCI-H23 0.0052 µM | ACHN 0.00849 µM | OVCAR-5 0.0106 µM | SK-MEL-28 0.0167 µM | UACC-62 0.0129 µM | NCI-H460 0.00147 µM | T47D 0.0123 µM | MOLT-4 0.00731 µM | OVCAR-3 0.0187 µM | HT-29 0.00341 µM | MDA-MB-435 0.0156 µM | U-251 0.00213 µM | TK-10 0.0223 µM | KM12 0.0212 µM
0.00675 µM: HCT-15
